Test results from US20260374766A1, “METHODS FOR TREATING CANCER” (Antares Therapeutics, Inc., priority 2022, published 2026).

Columns and labels:
[1] = test system: H1299 p53 Y220C; experiment: Cell Proliferation Assay (CellTiter-Glo, CTG), H1299 p53 Y220C (NClH1299-inducible p53 Y220C); assay type: cell-based; conditions: Homo sapiens, NCI-H1299, 120 h, CellTiter-Glo, H1299 p53 Y220C, 5 days
How it was run: (§1)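 Cells seeded at 250-500 per well and exposed to compound for 5 days. Viability read by CellTiter-Glo luminescence after 10 min at room temperature; IC50 calculated. H1299 lines carry Tet-One inducible p53 mutant constructs introduced by lentiviral transduction.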

[2] = target: T1, p53 Y220C mutant protein (amino acid residues 94-293) (Homo sapiens, UniProt P04637, Y220C); experiment: Thermal Shift Assay (TSA), dTM; assay type: binding; conditions: thermal shift; for ΔTm at 100 µM: 100 uM compound, read-out: TSA P53 Y220C dTM (100 uM); for ΔTm at 10 µM: 10 uM compound, read-out: TSA P53 Y220C dTM (10 uM)
T1 construct: p53 Y220C mutant protein (amino acid residues 94-293)
How it was run: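 Recombinant p53 Y220C core (residues 94-293) at 5 μM was incubated with 10 μM or 100 μM compound for 3 hours at 20 °C in 20 mM HEPES pH7.4, 100 mM NaCl, 0.01% Pluronic F-127, 1% DMSO with 400-fold diluted Sypro Orange. Melting was followed from 30 °C to 50 °C at 0.03 °C/second, and TM came from a Boltzmann two-state fit.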

[3] = test system: H1299 p53 R273H; experiment: Cell Proliferation Assay (CellTiter-Glo, CTG), H1299 p53 R273H (NClH1299-inducible p53 R273H); assay type: cell-based; conditions: Homo sapiens, NCI-H1299, 120 h, CellTiter-Glo, H1299 p53 R273H, 5 days
How it was run: as §1

[4] = target: p53 Y220C (Homo sapiens, UniProt P04637, Y220C); experiment: Luciferase Reporter Assay (Luc), p53 response element, NClH1299 cells with inducible p53 Y220C; assay type: cell-based; conditions: luciferase reporter, NClH1299 inducible p53 Y220C, 6 hour; for Emax: 10 uM tool compound as positive control; for AC50: read-out: Luc P53 Y220C AC50
How it was run: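 Luminescence readout (One-Glo, 5 min shaking at RT, read at once) after 6 h compound exposure; cells pre-induced 24 h with 0.5 ug/mL doxycycline, 5,000/well.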

[5] = target: T1, p53 Y220C mutant protein (amino acid residues 94-293); experiment: Surface Plasmon Resonance (SPR) assay, Kd_kinetic; assay type: binding; conditions: SPR, kinetic KD, p53 Y220C; read-out: SPR P53 Y220C KD kinetic
How it was run: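 Binding measured by SPR on a Biacore 8K in running buffer of 50 mM Tris pH 7.5, 100 mM NaCl, 1 mM DTT, 0.01% Brij35, 0.05% Tween-20, 1% DMSO.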

[6] = test system: NUGC3 p53 Y220C; experiment: Cell Proliferation Assay (CellTiter-Glo, CTG), NUGC3 p53 Y220C; assay type: cell-based; conditions: Homo sapiens, NUGC-3, 120 h, CellTiter-Glo, NUGC3 p53 Y220C, 5 days
How it was run: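 NClH1299 lines stably transduced with Tet-inducible p53 Y220C or R273H, plus NUGC3, were treated with compound for 5 days at 250-500 cells/well. IC50 derived from CellTiter-Glo luminescent signal after 10 min room-temperature incubation.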

| SMILES | IC50 [1] [nM] | ΔTm at 100 µM [2] [°C] | IC50 [3] [nM] | Emax [4] [%] | AC50 [4] [nM] | Kd [5] [nM] | ΔTm at 10 µM [2] [°C] | IC50 [6] [nM] |
| --- | --- | --- | --- | --- | --- | --- | --- | --- |
| COc1cc(S(=O)(=O)C(C)C)ccc1NCC#Cc1nc2c(N[C@@H]3CCN(C)C[C@@H]3F)cccn2c1CC(F)(F)F [Example 77, (3S,4R)-3-fluoro-N-[2-(3-{[2-methoxy-4-(propane-2-sulfonyl)phenyl]amino}prop-1-yn-1-yl)-3-(2,2,2-trifluoroethyl)imidazo[1,2-a]pyridin-8-yl]-1-methylpiperidin-4-amine] | < 750 | ≥ 10 | 5000 to 8000 | 70 to 80 | < 750 | < 10 |  | < 750 |
| CCS(=O)(=O)c1ccc(NCC#Cc2nc3c(N[C@@H]4CCN(C)C[C@@H]4F)cccn3c2SC(F)(F)F)c(OC)c1 [Example 79, (3S,4R)—N-[2-(3-{[4-(ethanesulfonyl)-2-methoxyphenyl]amino}prop-1-yn-1-yl)-3-[(trifluoromethyl)sulfanyl]imidazo [1,2-a]pyridin-8-yl]-3-fluoro-1-methylpiperidin-4-amine] | < 750 | ≥ 10 | 8000 to 10000 | 80 to 90 | < 750 | < 10 |  | < 750 |
| CCS(=O)(=O)c1ccc(NCC#Cc2nc3c(N[C@@H]4CCNC[C@@H]4F)cccn3c2SC(F)(F)F)c(OC)c1 [Example 80, (3S,4R)—N-[2-(3-{[4-(ethanesulfonyl)-2-methoxyphenyl]amino}prop-1-yn-1-yl)-3-[(trifluoromethyl)sulfanyl]imidazo[1,2-a]pyridin-8-yl]-3-fluoropiperidin-4-amine] | < 750 | ≥ 10 | 5000 to 8000 | 80 to 90 | < 750 | < 10 |  | < 750 |
| COc1cc(S(C)(=O)=O)ccc1NCC#Cc1nc2c(N[C@@H]3CCN(C)C[C@@H]3F)cccn2c1SC(F)(F)F [Example 82, (3S,4R)-3-fluoro-N-(2-{3-[(4-methanesulfonyl-2-methoxyphenyl)amino]prop-1-yn-1-yl}-3-[(trifluoromethyl)sulfanyl]imidazo[1,2-a]pyridin-8-yl)-1-methylpiperidin-4-amine] | < 750 | ≥ 10 | 8000 to 10000 | 80 to 90 | < 750 | < 10 |  | < 750 |
| COc1cc(S(C)(=O)=O)ccc1NCC#Cc1nc2c(N[C@@H]3CCNC[C@@H]3F)cccn2c1SC(F)(F)F [Example 83] | < 750 | ≥ 10 | 5000 to 8000 | 70 to 80 | < 750 | < 10 | ≥ 10 | < 750 |
| COc1ccc(S(C)(=O)=O)cc1NCC#Cc1nc2c(N[C@@H]3CCN(C)C[C@@H]3F)cccn2c1SC(F)(F)F [Example 84, (3S,4R)-3-fluoro-N-(2-{3-[(5-methanesulfonyl-2-methoxyphenyl)amino]prop-1-yn-1-yl}-3-[(trifluoromethyl)sulfanyl]imidazo[1,2-a]pyridin-8-yl)-1-methylpiperidin-4-amine] | 1500 to 3000 | ≥ 10 | ≥ 10000 | 80 to 90 | 1500 to 3000 | < 10 | 5 to 10 | 1500 to 3000 |
| CCNC(=O)c1ccc(NCC#Cc2nc3c(N[C@@H]4CCN(C)C[C@@H]4F)cccn3c2SC(F)(F)F)c(OC)c1 [Example 85, N-ethyl-4-{[3-(8-{[(3S,4R)-3-fluoro-1-methylpiperidin-4-yl]amino}-3-[(trifluoromethyl)sulfanyl]imidazo[1,2-a]pyridin-2-yl)prop-2-yn-1-yl]amino}-3-methoxybenzamide] | < 750 | ≥ 10 | 5000 to 8000 | 80 to 90 | < 750 | < 10 |  | < 750 |
| COc1cc(C(=O)N(C)C)ccc1NCC#Cc1nc2c(N[C@@H]3CCN(C)C[C@@H]3F)cccn2c1SC(F)(F)F [Example 88, 4-{[3-(8-{[(3S,4R)-3-fluoro-1-methylpiperidin-4-yl]amino}-3-[(trifluoromethyl)sulfanyl]imidazo[1,2-a]pyridin-2-yl)prop-2-yn-1-yl]amino}-3-methoxy-N, N-dimethylbenzamide] | < 750 | ≥ 10 | 8000 to 10000 | 80 to 90 | < 750 | < 10 | ≥ 10 | < 750 |
| COc1cc(C(=O)NC(C)C)ccc1NCC#Cc1nc2c(N[C@@H]3CCN(C)C[C@@H]3F)cccn2c1SC(F)(F)F [Example 89, 4-{[3-(8-{[(3S,4R)-3-fluoro-1-methylpiperidin-4-yl]amino}-3-[(trifluoromethyl)sulfanyl]imidazo[1,2-a]pyridin-2-yl)prop-2-yn-1-yl]amino}-N-isopropyl-3-methoxybenzamide] | < 750 | ≥ 10 | 8000 to 10000 | 80 to 90 | < 750 | < 10 |  | < 750 |

Continued, in another order:

| IC50 [1] [nM] | ΔTm at 100 µM [2] [°C] | IC50 [3] [nM] | Emax [4] [%] | AC50 [4] [nM] | Kd [5] [nM] | ΔTm at 10 µM [2] [°C] | SMILES | IC50 [6] [nM] |
| --- | --- | --- | --- | --- | --- | --- | --- | --- |
| < 750 | ≥ 10 | ≥ 10000 | 80 to 90 | < 750 | < 10 |  | COc1cc(S(=O)(=O)C(C)C)ccc1NCC#Cc1nc2c(N[C@@H]3CCN(C)C[C@@H]3F)cccn2c1SC(F)(F)F [Example 78, (3S,4R)-3-fluoro-N-[2-(3-{[2-methoxy-4-(propane-2-sulfonyl)phenyl]amino}prop-1-yn-1-yl)-3-[(trifluoromethyl)sulfanyl]imidazo[1,2-a]pyridin-8-yl]-1-methylpiperidin-4-amine] | < 750 |
| < 750 | ≥ 10 | 5000 to 8000 | 80 to 90 | < 750 | < 10 |  | COc1cc(S(=O)(=O)C2CC2)ccc1NCC#Cc1nc2c(N[C@@H]3CCN(C)C[C@@H]3F)cccn2c1SC(F)(F)F [Example 81, (3S,4R)—N-[2-(3-{[4-(cyclopropanesulfonyl)-2-methoxyphenyl]amino}prop-1-yn-1-yl)-3-[(trifluoromethyl)sulfanyl]imidazo[1,2-a]pyridin-8-yl]-3-fluoro-1-methylpiperidin-4-amine] | < 750 |
| < 750 | ≥ 10 | 5000 to 8000 | 80 to 90 | < 750 | < 10 |  | COc1cc(C(=O)NC2CC2)ccc1NCC#Cc1nc2c(N[C@@H]3CCN(C)C[C@@H]3F)cccn2c1SC(F)(F)F [Example 86, N-cyclopropyl-4-{[3-(8-{[(3S,4R)-3-fluoro-1-methylpiperidin-4-yl]amino}-3-[(trifluoromethyl)sulfanyl]imidazo[1,2-a]pyridin-2-yl)prop-2-yn-1-yl]amino}-3-methoxybenzamide] | < 750 |
| < 750 | ≥ 10 | 8000 to 10000 | 80 to 90 | < 750 | < 10 |  | COc1cc(C(=O)N2CCC2)ccc1NCC#Cc1nc2c(N[C@@H]3CCN(C)C[C@@H]3F)cccn2c1SC(F)(F)F [Example 87, (3S,4R)—N-[2-(3-{[4-(azetidine-1-carbonyl)-2-methoxyphenyl]amino}prop-1-yn-1-yl)-3-[(trifluoromethyl)sulfanyl]imidazo[1,2-a]pyridin-8-yl]-3-fluoro-1-methylpiperidin-4-amine] | < 750 |
